Assay results as given in ChEMBL document CHEMBL5344411, “Phenotypic screening-based drug discovery of furan-2-carboxylic acid derivatives for the amelioration of type 2 diabetes mellitus (T2DM)” (Eur J Med Chem, 2023).
The source made the active and inactive calls. The rule behind the calls is not given here.

How the values were obtained:
[1] = system: Hepatocyte; experiment: Inhibition of gluconeogenesis in Sprague-Dawley rat hepatocytes at 10 uM incubated for 1.5 hrs followed by sodium pyruvate and sodium lactate addition and measured after 4 hrs by colorimetric analysis relative to control; format: functional; conditions: time 5.5 hrs
[2] = system: Mus musculus; experiment: Inhibition of gluconeogenesis in CD-1 mouse assessed as decrease in blood glucose level at 50 mg/kg administered via gavage at 2 hrs prior to pyruvate sodium challenge and measured for 2 hrs by pyruvate tolerance test; format: functional, organism-based; conditions: time 4.0 hrs
[3] = system: Mus musculus; experiment: Antihyperglycemic activity in diabetic ob/ob mouse assessed as reduction in fasting blood glucose level at 15 mg/kg administered via gavage qd for 24 days and measured on day 24; format: functional, organism-based; conditions: time 24.0 day
[4] = Toxicity in diabetic ob/ob mouse assessed as effect on body weight at 15 mg/kg administered via gavage qd for 24 days; format: organism-based; conditions: in vivo, po, 576 h, time 24 day
[5] = system: Mus musculus; experiment: Inhibition of gluconeogenesis in CD-1 mouse assessed as decrease in blood glucose level at 50 mg/kg administered via gavage at 1 hr prior to pyruvate sodium challenge and measured for 2 hrs by pyruvate tolerance test; format: functional, organism-based; conditions: time 3.0 hrs
[6] = system: Mus musculus; experiment: Antihyperglycemic activity in diabetic ob/ob mouse assessed as reduction in non-fasting blood glucose level at 15 mg/kg administered via gavage qd for 24 days and measured on day 24; format: functional, organism-based; conditions: time 24.0 day
[7] = system: Hepatocyte; experiment: Inhibition of gluconeogenesis in Sprague-Dawley rat hepatocytes at 3 uM incubated for 1.5 hrs followed by sodium pyruvate and sodium lactate addition and measured after 4 hrs by colorimetric analysis relative to control; format: functional; conditions: time 5.5 hrs
[8] = system: Hepatocyte; experiment: Inhibition of gluconeogenesis in Sprague-Dawley rat hepatocytes at 1 uM incubated for 1.5 hrs followed by sodium pyruvate and sodium lactate addition and measured after 4 hrs by colorimetric analysis relative to control; format: functional; conditions: time 5.5 hrs
[9] = system: Hepatocyte; experiment: Inhibition of gluconeogenesis in Sprague-Dawley rat hepatocytes at 0.3 uM incubated for 1.5 hrs followed by sodium pyruvate and sodium lactate addition and measured after 4 hrs by colorimetric analysis relative to control; format: functional; conditions: time 5.5 hrs
[10] = Toxicity in diabetic ob/ob mouse assessed as effect on daily food intake at 15 mg/kg administered via gavage qd for 24 days; format: organism-based; conditions: in vivo, po, 576 h, time 24 day

Structure (SMILES): CCCc1ccc(OC)c(OCc2ccc(C(=O)O)o2)c1
- fold change (FC) [1]: 1.18

Structure (SMILES): COc1cc(/C=C/C(=O)N(C)C)ccc1OCc1ccc(C(=O)O)o1
- fold change (FC) [1]: 0.77

Structure (SMILES): CCCc1ccc(OCc2ccc(C(=O)O)o2)c(OCC)c1
- fold change (FC) [1]: 0.77

Structure (SMILES): CCCc1cccc(OC)c1OCc1ccc(C(=O)O)o1
- fold change (FC) [1]: 0.67

Structure (SMILES): C=CCc1ccc(OCc2cccc(C(=O)O)n2)c(OC)c1
- fold change (FC) [1]: 1.11

Structure (SMILES): C=CCc1ccc(OCc2ccc(C(=O)N(C)C)o2)c(OC)c1
- fold change (FC) [1]: 0.87

Structure (SMILES): CCCc1ccc(OCc2ccc(C(=O)O)o2)c(NC(C)=O)c1
- fold change (FC) [1]: 0.95

Structure (SMILES): CCCc1ccc(OCc2ccc(C(=O)O)o2)c(OCC2CC2)c1
- fold change (FC) [1]: 1.16

Structure (SMILES): CCCOc1cc(CCC)ccc1OCc1ccc(C(=O)O)o1
- fold change (FC) [1]: 0.72

Structure (SMILES): C=CCc1ccc(OCc2ccc(C(=O)Nc3cccc(C)c3)o2)c(OC)c1
- fold change (FC) [1]: 0.83

Structure (SMILES): CNC(=O)/C=C/c1ccc(OCc2ccc(C(=O)O)o2)c(OC)c1
- fold change (FC) [1]: 0.85

Structure (SMILES): C=CCc1ccc(OCc2ccc(C(=O)N3CCN(C)CC3)o2)c(OC)c1
- fold change (FC) [1]: 0.98

Structure (SMILES): C=CCc1ccc(OCc2ccc(C(=O)O)o2)c(OC)c1
- inhibition [2]: Active
- Activity [3]: Active
- Activity [4]: Non-Toxic
- fold change (FC) [1]: 0.57
- inhibition [5]: Active
- Activity [6]: Active
- fold change (FC) [7]: 0.73
- fold change (FC) [8]: 0.92
- fold change (FC) [9]: 0.96
- Activity [10]: Non-Toxic

Structure (SMILES): C=CCc1ccc(OCc2ccc(C(=O)O)o2)cc1
- fold change (FC) [1]: 0.6

Structure (SMILES): CCCc1ccc(OCc2ccc(C(=O)O)o2)c(NC)c1
- fold change (FC) [1]: 0.41
- inhibition [5]: Active
- fold change (FC) [7]: 0.56
- fold change (FC) [8]: 0.81
- fold change (FC) [9]: 1.02

Structure (SMILES): CCCc1ccc(OCc2ccc(C(=O)O)o2)c(OC)c1
- inhibition [2]: Active
- fold change (FC) [1]: 0.65
- fold change (FC) [7]: 0.75
- fold change (FC) [8]: 1.05
- fold change (FC) [9]: 1.19

Structure (SMILES): C/C=C/c1ccc(OCc2ccc(C(=O)O)o2)c(OC)c1
- fold change (FC) [1]: 0.93

Structure (SMILES): CCCc1ccc(OCc2ccc(C(=O)O)o2)c(OCCOC)c1
- fold change (FC) [1]: 0.72

Structure (SMILES): Cc1cc(Br)ccc1OCc1ccc(C(=O)O)o1
- fold change (FC) [1]: 0.33
- inhibition [5]: Active
- fold change (FC) [7]: 0.37
- fold change (FC) [8]: 1.01
- fold change (FC) [9]: 0.93
